# Measurements: patent US9399626B2, “2-thiopyrimidinones” (Pfizer Inc., priority 2011, dated 2016)
# Counter-ions that a name gives are not always drawn.
# Biological target: T1, MPO (purified from human polynuclear leukocytes) (Homo sapiens, UniProt P05164)
# T1 construct: purified from human polynuclear leukocytes; purchased Calbiochem/EMD Biosciences; host or cells: human polynuclear leukocytes (natural source)
# Assay: MPO Amplex Red Activity Assay
# Assay type: biochemical
# Conditions: Table 1, 2 μM H2O2, pH 7.4
# Outline: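 Potency is given as kinact/KI: kobs values from 600 s progress curves, minus the uninhibited rate, are fit against inhibitor concentration. Reactions use 2 μM H2O2, 30 μM Amplex Red, pH 7.4 phosphate buffer with NaCl, DTPA and 2% DMSO, started with […] human MPO. Readout is resorufin fluorescence, catalase background subtracted.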
# T1 sequence (P05164 279-745 limits assumed): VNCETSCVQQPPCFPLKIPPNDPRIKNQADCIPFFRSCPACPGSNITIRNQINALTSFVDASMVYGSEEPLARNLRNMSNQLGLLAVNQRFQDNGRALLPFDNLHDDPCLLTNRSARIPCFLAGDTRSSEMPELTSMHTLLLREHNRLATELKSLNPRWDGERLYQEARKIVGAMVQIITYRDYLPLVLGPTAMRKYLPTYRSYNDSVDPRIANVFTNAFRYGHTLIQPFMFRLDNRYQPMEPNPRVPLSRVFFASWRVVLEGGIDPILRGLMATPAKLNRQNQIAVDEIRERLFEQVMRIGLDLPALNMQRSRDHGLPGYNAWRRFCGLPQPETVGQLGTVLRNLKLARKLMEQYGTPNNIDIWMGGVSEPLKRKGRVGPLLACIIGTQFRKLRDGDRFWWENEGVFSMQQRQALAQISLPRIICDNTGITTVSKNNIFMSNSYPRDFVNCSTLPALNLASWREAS
# T1 sequence (P05164 165-273 limits assumed): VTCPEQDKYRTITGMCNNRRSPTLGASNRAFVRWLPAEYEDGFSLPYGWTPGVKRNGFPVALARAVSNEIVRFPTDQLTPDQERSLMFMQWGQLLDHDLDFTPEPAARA
row,Compound,MPO kinact/Ki
1,"COc1cc(F)ccc1-c1cc(=O)[nH]c(=S)n1CCO [Example 27, 6-(4-fluoro-2-methoxyphenyl)-1-(2-hydroxyethyl)-2-thioxo-2,3-dihydropyrimidin-4(1H)-one]",15800 1/s per M
2,"COc1ccc(-c2cc(=O)[nH]c(=S)n2CCCN=C(N)N)c(OC)c1 [Example 270, 2-{3-[6-(2,4-dimethoxyphenyl)-4-oxo-2-thioxo-3,4-dihydropyrimidin-1(2H)-yl]propyl}guanidine trifluoroacetate]",20500 1/s per M
3,"COCCn1c(-c2csc3ccccc23)cc(=O)[nH]c1=S [Example 324, 6-(1-benzothien-3-yl)-1-(2-methoxyethyl)-2-thioxo-2,3-dihydropyrimidin-4(1H)-one]",11300 1/s per M
4,"COc1ccc(-c2cc(=O)[nH]c(=S)n2CCN)c(Cl)c1 [Example 61, 1-(2-aminoethyl)-6-(2-chloro-4-methoxyphenyl)-2-thioxo-2,3-dihydropyrimidin-4(1H)-one hydrochloride]",3530 1/s per M
5,"COc1ccc(OC)c(-c2cc(=O)[nH]c(=S)n2CCN)c1 [Example 166, 1-(2-aminoethyl)-6-(2,5-dimethoxyphenyl)-2-thioxo-2,3-dihydropyrimidin-4(1H)-one hydrochloride]",8920 1/s per M
6,"COc1ccc(-c2cc(=O)[nH]c(=S)n2CCCN)c(Cl)c1 [Example 91, 1-(3-aminopropyl)-6-(2-chloro-4-methoxyphenyl)-2-thioxo-2,3-dihydropyrimidin-4(1H)-one hydrochloride]",9360 1/s per M
7,"COc1ccc(-c2cc(=O)[nH]c(=S)n2CCNS(C)(=O)=O)c(OC)c1 [Example 257, N-{2-[6-(2,4-dimethoxyphenyl)-4-oxo-2-thioxo-3,4-dihydropyrimidin-1(2H)-yl]ethyl}methanesulfonamide]",3700 1/s per M
8,"COc1cc(F)ccc1-c1cc(=O)[nH]c(=S)n1CC(N)=O [Example 56, 2-[6-(4-fluoro-2-methoxyphenyl)-4-oxo-2-thioxo-3,4-dihydropyrimidin-1(2H)-yl]acetamide]",4770 1/s per M
9,"COc1ccc(-c2cc(=O)[nH]c(=S)n2CCO)c2ccccc12 [Example 274, 1-(2-hydroxyethyl)-6-(4-methoxy-1-naphthyl)-2-thioxo-2,3-dihydropyrimidin-4(1H)-one]",22800 1/s per M
10,"COc1cc(OC)c(-c2cc(=O)[nH]c(=S)n2CCN)cc1Cl [Example 111, 1-(2-aminoethyl)-6-(5-chloro-2,4-dimethoxyphenyl)-2-thioxo-2,3-dihydropyrimidin-4(1H)-one hydrochloride]",10300 1/s per M
11,"COc1ccc(Cl)cc1-c1cc(=O)[nH]c(=S)n1CCCO [Example 94, 6-(5-chloro-2-methoxyphenyl)-1-(3-hydroxypropyl)-2-thioxo-2,3-dihydropyrimidin-4(1H)-one]",6930 1/s per M
12,"COc1cccc(-c2cc(=O)[nH]c(=S)n2CCN)c1 [Example 264, 1-(2-aminoethyl)-6-(3-methoxyphenyl)-2-thioxo-2,3-dihydropyrimidin-4(1H)-one hydrochloride]",3620 1/s per M
13,"COCCn1c(-c2c(OC)ccc3ccccc23)cc(=O)[nH]c1=S [Example 339, 1-(2-methoxyethyl)-6-(2-methoxy-1-naphthyl)-2-thioxo-2,3-dihydropyrimidin-4(1H)-one]",10400 1/s per M
14,"COCCn1c(-c2ccc(OC)c(OC)c2)cc(=O)[nH]c1=S [Example 331, 6-(3,4-dimethoxyphenyl)-1-(2-methoxyethyl)-2-thioxo-2,3-dihydropyrimidin-4(1H)-one]",6330 1/s per M
15,"COc1cccc(OC)c1-c1cc(=O)[nH]c(=S)n1C [Example 157, 6-(2,6-dimethoxyphenyl)-1-methyl-2-thioxo-2,3-dihydropyrimidin-4(1H)-one]",7320 1/s per M

# Same assay, conditions: Table 1A, 2 μM H2O2, pH 7.4
row,Compound,MPO kinact/Ki
1,"COc1ccc(-c2cc(=O)[nH]c(=S)n2CC(F)(F)CN=C(N)N)c(OC)c1 [Example 453, 2-{3-[6-(2,4-dimethoxyphenyl)-4-oxo-2-thioxo-3,4-dihydropyrimidin-1(2H)-yl]-2,2-difluoropropyl}guanidine]",27800 1/s per M
2,"COc1ccc(-c2cc(=O)[nH]c(=S)n2CCC(=O)NCCN)c(OC)c1 [Example 444, N-(2-aminoethyl)-3-[6-(2,4-dimethoxyphenyl)-4-oxo-2-thioxo-3,4-dihydropyrimidin-1(2H)-yl]propanamide]",17400 1/s per M
3,"NCCCn1c(-c2cc(F)ccc2OCCO)cc(=O)[nH]c1=S [Example 406, 1-(3-aminopropyl)-6-[5-fluoro-2-(2-hydroxyethoxy)phenyl]-2-thioxo-2,3-dihydropyrimidin-4(1H)-one]",4480 1/s per M
4,"COc1ccc(-c2cc(=O)[nH]c(=S)n2CCO)cc1OC [Example 355, 6-(3,4-dimethoxyphenyl)-1-(2-hydroxyethyl)-2-thioxo-2,3-dihydropyrimidin-4(1H)-one]",1540 1/s per M
5,"CCCNC(=O)Cn1c(-c2ccc(OC)cc2OC)cc(=O)[nH]c1=S [Example 435, 2-[6-(2,4-dimethoxyphenyl)-4-oxo-2-thioxo-3,4-dihydropyrimidin-1(2H)-yl]-N-propylacetamide]",2420 1/s per M
6,"COc1ccc(-c2cc(=O)[nH]c(=S)n2CCO)c(OCCO)c1 [Example 409, 6-[2-(2-hydroxyethoxy)-4-methoxyphenyl]-1-(2-hydroxyethyl)-2-thioxo-2,3-dihydropyrimidin-4(1H)-one]",18000 1/s per M
7,"NCCn1c(-c2cc3ccccc3s2)cc(=O)[nH]c1=S [Example 354, 1-(2-aminoethyl)-6-(1-benzothiophen-2-yl)-2-thioxo-2,3-dihydropyrimidin-4(1H)-one]",1830 1/s per M
